Measurements as given in patent US10993983B2, “Cyclic peptide epitopes and small-molecule mimics for inducing autophagy” (TRUSTEES OF TUFTS COLLEGE, priority 2016, dated 2021).
Entries after “also recorded” stand apart in the source; their conditions may differ. Bridges are numbered along the chain shown (N, C = ends). Where no end group is shown, it is not given here. [ ]: non-standard residue; d: D form. The star is where a group is joined. cyanopropanyl = 3-cyanopropanyl N-terminal cap, N#CCCC*; Nicotinoyl = O=C(c1cccnc1)*; PhAc = O=C(Cc1ccccc1)*; Bz = O=C(c1ccccc1)*

What was measured:
Assay type in all cases: cell-based
p62 = p62 degradation assay (p62/actin immunoblot); set-up: key: −: activity not reported; 0: decreased vs. WT; +: similar to WT; ++: modest increase vs. WT; +++: significant increase vs. WT; conditions: Table 4, control inactive Tat-Beclin mutant, first symbol
LC3 = LC3 marker assay (LC3-I to LC3-II conversion immunoblot); set-up: key: −: activity not reported; 0: decreased vs. WT; +: similar to WT; ++: modest increase vs. WT; +++: significant increase vs. WT; conditions: Table 4, control inactive Tat-Beclin mutant, second symbol
HeLa cells = assay: Autophagy induction judged by p62 and LC3 immunoblots together; set-up: key to Activity compared to wild-type WT / Activity (μM) 10, single symbol / Activity (μM) 30, single symbol / Activity (μM) 50, single symbol / Activity (μM) 100, single symbol: −: activity not reported; 0: decreased vs. WT; +: similar to WT; ++: modest increase vs. WT; +++: significant increase vs. WT; conditions: for Activity (μM) 10, single symbol: 10 μM; for Activity compared to wild-type WT: Tat-linked linear peptides, summation of p62 degradation assay and LC3 marker assay; for autophagy induction, result in words / concentration at which autophagy induction (p62 degradation and LC3 lipidation) was observed: HeLa cells; for autophagy induction, result in words: p62 and LC3 immunoblots; for concentration at which autophagy induction (p62 degradation and LC3 lipidation) was observed: immunoblot, 3 hour treatment
Procedure: This 10-mer sequence was substituted with various thiol-containing amino acids at various positions, and then cross-linked with various linkers as described above (FIG. 5, a and FIG. 6).
Cells were treated with peptide in OPTI-MEM (Thermo Scientific) acidified with 0.15% (v/v) 6N HCl for 3 hour. Cells were rinsed with Dulbecco's phosphate buffered saline (PBS) and lysed in lysis buffer (20 mM HEPES, 150 mM NaCl, 1 mM EDTA, 1% Triton X-100, protease inhibitor cocktail (Roche) on ice for 1 hour. Cell lysates were centrifuged at 16,000 g for 10 min at 4° C. and analyzed by SDS-PAGE and transferred to PVDF membranes. The membranes were blocked 5% non-fat dry milk (NFDM) in PBST (PBS+0.05% Tween-20) for 1 hour, then incubated overnight at 4° C. with primary antibody in 5% NFDM in PBST. The blots were washed with PBST and incubated with HRP-conjugated secondary antibodies diluted in 5% NFDM in PBST for 1 hour at room temperature. Membranes were washed with PBST and visualized with SuperSignal West Pico Chemiluminescent Substrate (Thermo Scientific). Semi-quantitative results were obtained by noting the lowest concentration at which both p62 degradation and LC3-I to LC3-II conversion were observed.
(SEQ ID NO: 16)-Sequence. […] The N-terminus was capped with an acetyl group while the C terminus was capped with a —C(O)—NH2 group. The activity reported is a summation of results from both the p62 degradation assay and the LC3 marker assay.

Substance | Activity compared to wild-type WT (HeLa cells) | autophagy induction, result in words (HeLa cells) | further results
YGRKKRRQRRR (Human immunodeficiency virus) [Tat, HIV-1 Tat protein transduction domain, reference compound] | – | – | Activity (μM) 10, p62/actin assay activity (p62; 10 μM): 0/0; Activity (μM) 30, p62/actin assay activity (p62; 30 μM): 0/0; Activity (μM) 50, p62/actin assay activity (p62; 50 μM): 0; Activity (μM) 100, p62/actin assay activity (p62; 100 μM): 0/0; Activity (μM) 10, LC3 assay activity (LC3; 10 μM): 0/0; Activity (μM) 30, LC3 assay activity (LC3; 30 μM): 0/0; Activity (μM) 50, LC3 assay activity (LC3; 50 μM): +; Activity (μM) 100, LC3 assay activity (LC3; 100 μM): 0/0; Activity (μM) 10, single symbol (HeLa cells; Table 4, starred rows (asterisk not explained)): 0; Activity (μM) 30, single symbol (HeLa cells; 30 μM, Table 4, starred rows (asterisk not explained)): 0; Activity (μM) 50, single symbol (HeLa cells; 50 μM, Table 4, starred rows (asterisk not explained)): 0; Activity (μM) 100, single symbol (HeLa cells; 100 μM, Table 4, starred rows (asterisk not explained)): 0
VYNATFEIWHD [Compound T13, Tat-linked linear peptide] | 0 | – | –
VFNATFEVWHD [Compound T14, Tat-linked linear peptide] | + | – | –
FNATFEIWHD [Compound T21, Tat-linked linear peptide] | ++ | – | –
VWNATFHYWHD [Compound T26, Tat-linked linear peptide] | +++ | – | –
(nicot)-VcNAcFHIWH (Nicotinoyl-V[dC]NA[dC]FHIWH; linker 2-5 via ortho‑xylene (inferred); not fully specified (C-terminus); printed as (nicot)-VcNAcFHIWH) [nicot-DD5-o] | – | – | autophagy induction, result in words (HeLa cells; listed as nicotinic acid cap): showed no activity; also recorded: no activity was observed
TFNATFEIWHD [Compound T22, Tat-linked linear peptide] | 0 | – | –
VFNACFEIWHD [Compound T5, Tat-linked linear peptide] | 0 | – | –
(pa)-VcNAcFHIAH (pa-V[dC]NA[dC]FHIAH; linker 2-5 via ortho‑xylene (inferred)) [Trp9Ala] | – | significantly decreased activity | concentration at which autophagy induction (p62 degradation and LC3 lipidation) was observed (HeLa cells): 100 µM
(pa)-VWNATFHIWH (not fully specified (N-terminus, C-terminus); printed as (pa)-VWNATFHIWH) [pa-10mer, no linker] | – | barely detectable activity | concentration at which autophagy induction (p62 degradation and LC3 lipidation) was observed (HeLa cells): 100 µM
WNATFHIW [Compound T35, Tat-linked linear peptide] | ++ | – | –
(free amine)-VcNAcFHIWH (H-V[dC]NA[dC]FHIWH; linker 2-5 via ortho‑xylene (inferred); not fully specified (C-terminus); printed as VcNAcFHIWH) [Compound H2N-DD5-o] | – | almost no autophagy-inducing activity | –
VWNATFHIWAD [Compound T42, Tat-linked linear peptide] | +++ | – | –
VWNATFHIWH [Compound T33, Tat-linked linear peptide] | +++ | – | –
(cyano)-VcNAcFHIWH (cyanopropanyl-V[dC]NA[dC]FHIWH; linker 2-5 via ortho‑xylene (inferred); not fully specified (C-terminus); printed as (cyano)-VcNAcFHIWH) [cyano-DD5-o] | – | induced autophagy, but to a somewhat lesser extent than DD5-o | –
(pentene)-VcNAcFHIWH [pentene-DD5-o] | – | induced autophagy, but to a somewhat lesser extent than DD5-o | concentration at which autophagy induction (p62 degradation and LC3 lipidation) was observed (HeLa cells): 50 µM
VFNATWEIWHD [Compound T6, Tat-linked linear peptide] | 0 | – | –
(pa)-VcNAcFAIWH (pa-V[dC]NA[dC]FAIWH; linker 2-5 via ortho‑xylene (inferred)) [His7Ala] | – | milder effects on activity | –
VWNATFELWHD [Compound T12, Tat-linked linear peptide] | + | – | –

Substance | Activity compared to wild-type WT (HeLa cells) | autophagy induction, result in words (HeLa cells) | further results
VWNATFEIWHD [Compound T2, Tat-linked linear peptide] | ++ | – | –
(pa)-VcNAcFHIWH [LL5-o] (VCNACFHIWH; not fully specified (residues 2, 5, N-terminus, bridges); printed as (pa)-VcNAcFHIWH; cysteine pairing not given here) [ortho-xylene linker; stereoisomer with two L-cysteines, negative control] | – | no autophagy-inducing activity | concentration at which autophagy induction (p62 degradation and LC3 lipidation) was observed (HeLa cells): 100 µM
(benzo)-VcNAcFHIWH (Bz-V[dC]NA[dC]FHIWH; linker 2-5 via ortho‑xylene (inferred); not fully specified (C-terminus); printed as (benzo)-VcNAcFHIWH) [benzo-DD5-o] | – | induced autophagy to a slightly lesser extent than DD5-o | concentration at which autophagy induction (p62 degradation and LC3 lipidation) was observed (HeLa cells): 50 µM
VFNATFEFWHD [Compound T18, Tat-linked linear peptide] | + | – | –
(pa)-VcNACFHIWH (pa-V[dC]NACFHIWH; linker 2-5 via ortho‑xylene (inferred)) [DL5-o] | – | mildly increased autophagy | –
GFNATFEIWHD [Compound T24, Tat-linked linear peptide] | 0 | – | –
VWNATFAIWHD [Compound T39, Tat-linked linear peptide] | +++ | – | –
VWNATFHIAHD [Compound T41, Tat-linked linear peptide] | + | – | –
(acetyl)-VcNAcFHIWH (Ac-V[dC]NA[dC]FHIWH; linker 2-5 via ortho‑xylene (inferred); not fully specified (C-terminus); printed as (acetyl)-VcNAcFHIWH) [Ac-DD5-o] | – | almost no autophagy-inducing activity | –
FNATFHIWH [Compound T31, Tat-linked linear peptide] | + | – | –
DFNATFEIWHD [Compound T23, Tat-linked linear peptide] | 0 | – | –
(phenyl)-VcNAcFHIWH (PhAc-V[dC]NA[dC]FHIWH; linker 2-5 via ortho‑xylene (inferred); not fully specified (C-terminus); printed as (phenyl)-VcNAcFHIWH) [phenyl-DD5-o] | – | showed no activity | –
VFNATFERWHD [Compound T20, Tat-linked linear peptide] | + | – | –
FNATFEIWH [Compound T30, Tat-linked linear peptide] | + | – | –
(hexyno)-VcNAcFHIWH (hexynoyl-V[dC]NA[dC]FHIWH; linker 2-5 via ortho‑xylene (inferred); not fully specified (C-terminus); printed as (hexyno)-VcNAcFHIWH) [hexyno-DD5-o] | – | induced autophagy, but to a somewhat lesser extent than DD5-o | –
VFNATFEYWHD [Compound T19, Tat-linked linear peptide] | + | – | –
VCNATCHIWH (V[dC]NAT[dC]HIWH; cysteine pairing not given here; also: Formula I modifications, R1 T, Z MP) [Compound 75] | – | – | Activity (μM) 10, single symbol (HeLa cells; Table 8, one symbol only): +
CFNATFEIWHD [Compound T1, Tat-linked linear peptide] | + | – | –
